Values quoted from earlier work as cited in patent publication US20240065977A1, “MYDRIATIC AND ANTI-MUSCARINIC AGENT COMPOSITION FOR OPHTHALMIC USE” (SENTISS PHARMA PRIVATE LIMITED, priority 2020, published 2024).
Read-outs that look alike come from different tables or passages of the source.

Test system: pupil

Compound	Mydriasis Peak (Concentration 0.5%-3%)	Mydriasis Recovery (Concentration 0.5%-3%)	duration of action (pupillary dilatation)	onset of action (pupillary dilatation)	Mydriasis Peak (Concentration 2%-5%)	Mydriasis Recovery (Concentration 2%-5%)
CN1[C@@H]2CC[C@H]1C[C@@H](OC(=O)C(CO)c1ccccc1)C2 (stereo partly drawn) [Atropine]	30 to 40 min	7 to 12 days	≥ 7 days	40 min		
CN1[C@@H]2CC[C@H]1C[C@@H](OC(=O)C(O)c1ccccc1)C2 (stereo partly drawn) [Homatropine]					40 to 60 min	1 to 3 days
